The values below come from PMC6386719, “A glycyl radical enzyme enables hydrogen sulfide production by the human intestinal bacterium Bilophila wadsworthia” (Proceedings of the National Academy of Sciences of the …, 2019).

Data set [1] addresses T1, SarD (sulfoacetaldehyde reductase) (Bilophila wadsworthia, UniProt E5Y946).
T1 construct: His-tagged, E. coli Rosetta 2 DE3
Put plainly: NADH-dependent reduction to isethionate. It counts as biochemical.

Data set [2] has as its target T2, AdhE (CoA-acylating aldehyde dehydrogenase) (Bilophila wadsworthia, UniProt E5Y379).
T2 construct: His-tagged, E. coli BL21
T2 sequence (E5Y379 1-484): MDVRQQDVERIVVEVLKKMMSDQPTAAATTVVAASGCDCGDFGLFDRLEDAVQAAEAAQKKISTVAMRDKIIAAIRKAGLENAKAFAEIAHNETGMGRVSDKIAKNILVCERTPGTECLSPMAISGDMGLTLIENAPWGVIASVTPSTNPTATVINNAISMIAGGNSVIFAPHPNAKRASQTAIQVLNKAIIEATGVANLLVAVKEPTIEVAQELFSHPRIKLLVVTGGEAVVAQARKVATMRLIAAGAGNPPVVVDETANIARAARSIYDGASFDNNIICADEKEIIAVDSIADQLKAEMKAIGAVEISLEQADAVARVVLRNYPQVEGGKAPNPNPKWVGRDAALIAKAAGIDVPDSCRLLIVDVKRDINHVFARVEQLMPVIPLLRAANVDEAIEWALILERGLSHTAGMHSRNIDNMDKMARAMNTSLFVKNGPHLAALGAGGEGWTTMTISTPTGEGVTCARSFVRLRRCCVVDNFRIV
Put plainly: conversion to acetyl-CoA. It counts as biochemical. The note with it: CoASH.

The target of data set [3] is T3, IslB (GRE-activating enzyme) (Bilophila wadsworthia, UniProt E5Y377).
T3 construct: His-tagged, E. coli BL21(DE3) delta-iscR::kan, anoxic purification, reconstituted, reduced with dithionite
T3 sequence (E5Y377 whole entry): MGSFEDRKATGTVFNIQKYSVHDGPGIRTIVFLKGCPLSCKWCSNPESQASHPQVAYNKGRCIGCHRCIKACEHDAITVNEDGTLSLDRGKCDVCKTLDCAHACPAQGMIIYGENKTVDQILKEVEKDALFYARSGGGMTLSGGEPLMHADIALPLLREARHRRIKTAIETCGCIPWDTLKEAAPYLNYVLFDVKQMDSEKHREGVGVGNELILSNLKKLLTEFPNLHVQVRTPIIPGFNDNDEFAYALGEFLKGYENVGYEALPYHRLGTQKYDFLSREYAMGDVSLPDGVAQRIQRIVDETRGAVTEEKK
T3 sequence (E5Y378 whole entry, further chain): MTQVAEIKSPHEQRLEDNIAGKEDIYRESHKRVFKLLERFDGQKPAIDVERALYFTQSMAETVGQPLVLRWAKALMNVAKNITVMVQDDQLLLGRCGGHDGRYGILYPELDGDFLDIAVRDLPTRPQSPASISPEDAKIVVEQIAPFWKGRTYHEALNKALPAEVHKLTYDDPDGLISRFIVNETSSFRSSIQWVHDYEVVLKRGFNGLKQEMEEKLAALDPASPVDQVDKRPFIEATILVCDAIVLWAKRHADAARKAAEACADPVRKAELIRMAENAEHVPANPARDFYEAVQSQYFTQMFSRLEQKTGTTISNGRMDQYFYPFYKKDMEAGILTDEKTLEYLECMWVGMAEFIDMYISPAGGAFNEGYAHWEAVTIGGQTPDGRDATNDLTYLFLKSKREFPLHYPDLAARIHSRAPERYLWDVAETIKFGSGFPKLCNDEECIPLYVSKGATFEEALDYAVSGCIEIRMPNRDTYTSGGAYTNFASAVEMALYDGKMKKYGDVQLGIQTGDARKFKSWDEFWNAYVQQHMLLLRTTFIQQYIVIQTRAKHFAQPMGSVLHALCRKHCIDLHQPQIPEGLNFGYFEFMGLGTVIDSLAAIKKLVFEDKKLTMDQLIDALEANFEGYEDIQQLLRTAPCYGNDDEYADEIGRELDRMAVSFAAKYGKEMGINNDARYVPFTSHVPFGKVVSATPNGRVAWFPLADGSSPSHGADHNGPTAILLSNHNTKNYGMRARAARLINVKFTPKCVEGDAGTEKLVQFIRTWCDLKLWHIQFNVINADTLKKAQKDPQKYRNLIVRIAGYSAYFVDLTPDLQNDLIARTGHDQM
Put plainly: glycyl radical installation on IslA, EPR. It counts as biochemical. Particulars: anoxic, acriflavine as photosensitizer.

The target of data set [4] is T4, Tpa (taurine:pyruvate aminotransferase) (Bilophila wadsworthia, UniProt E5Y945).
T4 construct: His-tagged, E. coli Rosetta 2 DE3
T4 sequence (E5Y945 1-456): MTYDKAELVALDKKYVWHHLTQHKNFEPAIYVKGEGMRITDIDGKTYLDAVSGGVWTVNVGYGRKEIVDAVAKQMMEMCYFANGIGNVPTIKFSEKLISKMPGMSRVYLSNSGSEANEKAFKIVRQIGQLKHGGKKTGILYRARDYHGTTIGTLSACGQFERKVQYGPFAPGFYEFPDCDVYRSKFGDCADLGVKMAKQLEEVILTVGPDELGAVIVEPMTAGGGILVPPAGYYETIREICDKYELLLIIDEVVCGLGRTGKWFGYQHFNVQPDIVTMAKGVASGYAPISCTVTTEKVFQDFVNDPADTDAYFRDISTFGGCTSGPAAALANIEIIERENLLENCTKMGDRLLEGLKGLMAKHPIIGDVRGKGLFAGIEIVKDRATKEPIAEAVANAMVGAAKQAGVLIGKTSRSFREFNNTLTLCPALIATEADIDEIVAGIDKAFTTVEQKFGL
Put plainly: deamination to sulfoacetaldehyde; LC-MS. It counts as biochemical.

Another data set deals with O=S(=O)(O)CCO. Put plainly: purified protein. Particulars: anoxic; IslB-activated enzyme; NADH in coupling assay.
Substrate in data set [5]: O=S(=O)(O)CCO
Put plainly: coupled spectrophotometric assay with yeast alcohol dehydrogenase. It counts as biochemical, Desulfovibrio desulfuricans. The note with it: anoxic; activated enzyme. The text has this:
coupled spectrophotometric assay with yeast alcohol dehydrogenase on GRE IslA of D. desulfuricans DSM642 | selectivity for the cleavage of isethionate to sulfite and acetaldehyde, but a modest apparent kcat/Km

T1 sequence (E5Y946 whole entry): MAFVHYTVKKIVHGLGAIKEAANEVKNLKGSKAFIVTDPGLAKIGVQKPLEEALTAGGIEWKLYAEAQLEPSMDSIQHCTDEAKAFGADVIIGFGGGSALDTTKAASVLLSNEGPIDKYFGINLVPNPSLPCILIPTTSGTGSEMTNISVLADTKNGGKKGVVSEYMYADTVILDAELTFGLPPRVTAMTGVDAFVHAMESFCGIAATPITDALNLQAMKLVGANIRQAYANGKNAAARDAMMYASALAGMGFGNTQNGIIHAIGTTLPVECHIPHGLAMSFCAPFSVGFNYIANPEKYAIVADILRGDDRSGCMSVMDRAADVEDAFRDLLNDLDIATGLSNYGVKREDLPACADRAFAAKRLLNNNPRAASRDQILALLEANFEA

`NC(=O)C1=CN([C@@H]2O[C@H](COP(=O)(O)OP(=O)(O)OC[C@H]3O[C@@H](n4cnc5c(N)ncnc54)[C@H](O)[C@@H]3O)[C@@H](O)[C@H]2O)C=CC1` [NADH]: in data set [1] (sulfoacetaldehyde), the “NADH-dependent reduction to isethionate” value is listed as “SarD reduces sulfoacetaldehyde to isethionate in an NADH-dependent manner”. Regarding `NC(=O)c1ccc[n+]([C@@H]2O[C@H](COP(=O)(O)OP(=O)(O)OC[C@H]3O[C@@H](n4cnc5c(N)ncnc54)[C@H](O)[C@@H]3O)[C@@H](O)[C@H]2O)c1` [NAD^+], the “conversion to acetyl-CoA” value in data set [2] (acetaldehyde) is reported as “it preferred NAD^+ over NADP^+”. With `C[S+](CC[C@H](N)C(=O)O)C[C@H]1O[C@@H](n2cnc3c(N)ncnc32)[C@H](O)[C@@H]1O` (some centres unmarked) [SAM], the “glycyl radical installation on IslA, EPR” value in data set [3] was “incubated with the purified GRE IslA in the presence of SAM and acriflavine”. Regarding `CC=O` [acetaldehyde], the “conversion to acetyl-CoA” value in data set [2] (NAD+) is “converted acetaldehyde to acetyl-CoA only in the presence of CoASH and NAD^+”. With `CC(=O)C(=O)O` [pyruvate], the “deamination to sulfoacetaldehyde; LC-MS” value in data set [4] (taurine) was “Tpa catalyzes the deamination of taurine with pyruvate to generate sulfoacetaldehyde and alanine”. Take `O=CCS(=O)(=O)O` [sulfoacetaldehyde]: the “NADH-dependent reduction to isethionate” value in data set [1] (NADH) is reported as “SarD reduces sulfoacetaldehyde to isethionate in an NADH-dependent manner”.

Turning to `NCCS(=O)(=O)O` [taurine, 2-aminoethanesulfonate], the “deamination to sulfoacetaldehyde; LC-MS” value in data set [4] (pyruvate) is “Tpa catalyzes the deamination of taurine with pyruvate to generate sulfoacetaldehyde and alanine”.

A word on the Km: it is the substrate concentration at which the rate is half of its maximum. The term kcat denotes the maximal rate divided by the concentration of active sites. As for “IslA (isethionate sulfite-lyase) (Bilophila wadsworthia 3_1_6)”, in the data set on O=S(=O)(O)CCO, the Michaelis-Menten constant (Km) is recorded as 8.1 ± 0.8 mM and the kcat came to 14 ± 0.4 s⁻¹.

B1: GRE IslA of D. desulfuricans DSM642 (Desulfovibrio desulfuricans ATCC 27774) (protein)
chain: MSMTTCECRSPQEQRLYDKIEGREDRFRKTHPRVFRLLERFEGQKPRIDIERALYFTQSMQETEGQPLVLRWAKALMHIARNMTVYVQEDQLLLGRAGCDGRYGILYPELDGDFLDIAVRDLPTRKTSPATITPEDARRVVEEIAPYWKGKTYHEALNAALPAEVHKLTYDDPEGLISRFIVNETSSFRSSIQWVHDYEKILKRGFNSIKKEAREKLAALDPLSAKDDREKRPFLEAVMIVCDAIVLWAKRHAVLAREMAEKESDPVRKAELLRMAENAEHVPGEPARDFWEACQSQWFTQMFSRIEQKTGTTISNGRMDQYFQPYYKQDREAGKITEAQAMELLECMWVGMAEFIDMYISPTGGAFNEGYAHWEAVTVGGQTPDGRDASNDLTYLILKSKREFPLHYPDLAARIHSRAPERYLWDVAETIKYGSGFPKLINDEEIVPLYVSKGATFEEALDYAVSGCTEARMPNRDTYTSGGAYINFAAAVEMVLRNGRMKKYGDQKLGVETGDPRSFTTWDQFWNAYVEQHLLFLKTAFTQQYIINKLRAEHFAQPMGSAMHDLCMKHCIDLHQEQIPEGINLGYFEYMGLGTVVDSLAAVKKLVFEEKKLSMDKLIAAIDADFEGYEDVRALLRSAPCYGNNDEYADAIGRDIDRISVEYGNKYSMSDLGIHNDVRYVPFTSHVPFGKVVSATPNGRTDGFPLSDGSSASHGADVNGPTAVLLSNCTTKNMGLRDRAARMLNIKFTPKCVEGEQGTEKLVSFIRTFCDLKLWHVQFNVVNKGTLVAAQKDPQKYRNLIVRIAGYSAYFVDLSPDLQNDLIARTEHDVM
notes: His-tagged, E. coli BL21
On to B1, for which, in data set [5], the Michaelis-Menten constant (Km) came out at 6.3 ± 0.5 mM and the kcat came to 12 ± 0.2 s⁻¹.
